Where a SMILES comes first, the peptide text is derived from it. Bridges are numbered along the chain shown (N, C = ends).
Test system: Caco-2 cell monolayer
Experiment: Migration across Caco-2 monolayer on transmigration inserts
Assay type: in vitro ADME, human
Conditions: 3 h
Experimental: For viability and cytotoxicity studies, cells were seeded in 96-well flat-bottom culture plates (1 × 10^4 cells/well). To determine migration of nisin A, plantaricin 423 and bacST4SA across the gastrointestinal epithelial and vascular endothelial barriers, HUVEC and Caco-2 cells were grown on an 8 µm pore size tissue culture insert, as shown in Fig. 1. All cell culture experiments were done in triplicate and have been repeated more than three times.
HUVECs and Caco-2 cells were seeded onto transmigration inserts (Fig. 1) at a cell density of 1 × 10^5 cells/insert (200 µL). Inserts were carefully placed in a 24-well tissue culture plate containing 700 µL cell growth media. […] The integrity of the monolayers was monitored by ensuring trans-epithelial electrical resistance (TEER) readings remained above 300 Ω throughout the experiment (Millicell-ERS volt-ohm meter, Merck)[51],[52],[62]. […] Transmigration inserts containing no monolayer, was used to determine the total fluorescence. Samples were incubated for 3 h while absorbance was measured at 490 nm every 30 min using a microplate reader. Before each reading, inserts were removed and placed into new microplates containing fresh media. […]
The percentage of peptide that attached to, or entered the cells was quantified by subtracting the sum of migrated peptide (eq. 4) and retained peptide (eq. 5) from the total fluorescence. […]

CC(C)C[C@@H]1NC(=O)[C@H](Cc2c[nH]cn2)NC(=O)[C@H](CO)NC(=O)[C@H](C(C)C)NC(=O)[C@H](CO)NC(=O)[C@@H](NC(=O)[C@H](CO)NC(=O)[C@H](Cc2ccccc2)NC(=O)[C@H](C)NC(=O)[C@H](CCC(N)=O)NC(=O)CNC(=O)[C@H](Cc2c[nH]c3ccccc23)NC(=O)[C@H](CC(N)=O)NC(=O)[C@@H](NC(=O)[C@H](CO)NC(=O)[C@@H]2CSSC[C@H](NC(=O)[C@@H](NC(=O)[C@@H](NC(=O)CNC(=O)[C@H](CC(N)=O)NC(=O)CNC(=O)[C@H](Cc3ccc(O)cc3)NC(=O)[C@H](Cc3ccc(O)cc3)NC(=O)[C@@H](N)CCCCN)C(C)C)[C@@H](C)O)C(=O)NCC(=O)N[C@@H](CCCCN)C(=O)N[C@@H](Cc3c[nH]cn3)C(=O)N[C@@H](CO)C(=O)N2)C(C)C)CSSC[C@@H](C(=O)O)NC(=O)[C@H](CCCCN)NC(=O)CNC(=O)[C@H](Cc2c[nH]cn2)NC(=O)CNC(=O)[C@H](Cc2ccccc2)NC(=O)[C@H](CC(N)=O)NC(=O)[C@H](C)NC1=O [plantaricin 423] (H-KYYGNGVTCGKHSCSVNWGQAFSCSVSHLANFGHGKC-OH; disulfide 9-14, 24-37; N-terminus and C-terminus assumed) was tested. Which “percentage attached and/or entered peptide” value (Caco-2, labelled peptide 50 µM, total fluorescence minus migrated and residual peptide) did it give?
The value was 11%.

And the migrated peptide (Caco-2 monolayer on 8 µm pore insert, apical addition, NHS-fluorescein labelled peptide 50 µM, 37 °C, TEER above 300 Ω, read at 490 nm, % of no-monolayer control, triplicate)?
The migrated peptide was 85%.

Reference: article PMC6685951, “Migration of Bacteriocins Across Gastrointestinal Epithelial and Vascular Endothelial Cells, as Determined Using In Vitro Simulations” (Scientific Reports, 2019)
